Source: patent publication US20250197420A1, “MACROCYCLIC COMPOUNDS, COMPOSITIONS, AND METHODS OF USING THEREOF” (Sionna Therapeutics Inc., priority 2022, published 2025)

Tests used:
[1] = tested on: Primary human bronchial epithelial cells from a ΔF508 homozygous CF donor (CF-HBE cells); experiment: TECC24 recording of CFTR-mediated transepithelial chloride transport, AUC fold over benchmark VX-809 @10 μM; assay type: cell-based; details: 48 hours incubation, AUC of forskolin-stimulated IEQ
Outline: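 Values are the forskolin-to-inhibitor-172 AUC of equivalent Cl− current, derived from transepithelial voltage and resistance, divided by the VX-809 AUC and binned as A <3, B 3–6, C 6–20. Cells were pre-incubated with compound for 48 h at 36.5 °C; the bath (pH 7.4) received benzamil 10 μM, forskolin 10 μM, then CFTRinh-172 20 μM.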

[2] = target: T1, Purified recombinant NBD1 (Homo sapiens, UniProt P13569); experiment: Aggregation analysis using differential static light scattering (DSLS): thermal stability of NBD1; assay type: binding; details: NBD1 0.2 mg/ml; Tagg of compound well minus average Tagg of DMSO control wells
T1 construct: Purified recombinant NBD1 was produced using previously described methods; made in house
T1 sequence (P13569 423-646 limits assumed): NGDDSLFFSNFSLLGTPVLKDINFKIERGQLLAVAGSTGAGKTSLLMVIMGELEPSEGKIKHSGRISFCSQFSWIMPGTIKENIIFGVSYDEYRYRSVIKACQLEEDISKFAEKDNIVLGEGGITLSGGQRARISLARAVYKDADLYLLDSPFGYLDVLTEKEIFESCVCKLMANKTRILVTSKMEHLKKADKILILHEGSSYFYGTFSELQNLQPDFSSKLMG
Outline: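 ΔTagg is compound-well aggregation temperature minus the DMSO-control mean, each Tagg being the inflection point of light scattering measured by DSLS during a 1 °C/min ramp up to 70 °C. The protein was purified NBD1 (0.2 mg/ml) in pH 7.6 buffer containing 2 mM ATP, 5 mM MgCl2 and 1% glycerol.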

## CN1CCC(C)(C)CCC(c2ccccc2F)c2cnc([nH]2)-c2cc(ccc2F)Oc2c(F)cc3[nH]ccc3c2CCC1=O (centres unmarked) [Compound 31, 23,29-difluoro-6-(2-fluorophenyl)-9,9,12-trimethyl-25-oxa-3,12,20,31-tetrazapentacyclo[24.3.1.12,5.016,24.017,21]hentriaconta-1(30),2,4,16,18,21,23,26,28-nonaen-13-one]
[1]
  TECC (test agent AUC divided by VX-809 AUC): A (a TECC value less than 3 is marked “A”)
[2]
  DSLS (ΔTagg): A (an ΔTagg value less than or equal to 5 °C is marked “A”)

## CN1CC(C)(C)CCC(C)(c2cccc(CCC(=O)O)c2)c2cnc([nH]2)-c2cc(ccc2F)Oc2c(F)cc3[nH]ccc3c2CCC1=O (centres unmarked) [Compound 33, 3-[3-(22,28-Difluoro-6,9,9,11-tetramethyl-12-oxo-24-oxa-3,11,19,30-tetrazapentacyclo[23.3.1.12,5.015,23.016,20]triaconta-1(29),2,4,15,17,20,22,25,27-nonaen-6-yl)phenyl]propanoic acid]
[1]
  TECC (test agent AUC divided by VX-809 AUC): A (a TECC value less than 3 is marked “A”)
[2]
  DSLS (ΔTagg): B (a value above 5 °C and less than or equal to 10 °C is marked “B”)

## CN1CC2(CCCC(C)(c3cccc(CCC(=O)O)c3)c3cnc([nH]3)-c3cc(ccc3F)Oc3c(F)cc4[nH]ccc4c3CCC1=O)CC2 (centres unmarked) [Compound 34, 3-[3-(23,29-Difluoro-6,12-dimethyl-13-oxo-spiro[25-oxa-3,12,20,31-tetrazapentacyclo[24.3.1.12,5.016,24.017,21]hentriaconta-1(30),2,4,16,18,21,23,26,28-nonaene-10,1′-cyclopropane]-6-yl)phenyl]propanoic acid]
[1]
  TECC (test agent AUC divided by VX-809 AUC): A (a TECC value less than 3 is marked “A”)
[2]
  DSLS (ΔTagg): C (a value greater than 10 °C and less than or equal to 25 °C is marked “C”)

## CN1CC2(CCCC(C)(c3ccccc3)c3cnc([nH]3)-c3cc(ccc3F)Oc3c(F)cc4[nH]ccc4c3CCC1=O)CC2 (centres unmarked) [Compound 35, 23,29-Difluoro-6,12-dimethyl-6-phenyl-spiro[25-oxa-3,12,20,31-tetrazapentacyclo[24.3.1.12,5.016,24.017,21]hentriaconta-1(30),2,4,16,18,21,23,26,28-nonaene-10,1′-cyclopropane]-13-one]
[1]
  TECC (test agent AUC divided by VX-809 AUC): A (a TECC value less than 3 is marked “A”)
[2]
  DSLS (ΔTagg): A (an ΔTagg value less than or equal to 5 °C is marked “A”)

## CC1(c2cccc(CCC(=O)O)c2)CCCC2(CC2)CNC(=O)CCc2c(c(F)cc3[nH]ccc23)Oc2ccc(F)c(c2)-c2ncc1[nH]2 (centres unmarked) [Compound 36, 3-[3-(23,29-Difluoro-6-methyl-13-oxo-spiro[25-oxa-3,12,20,31-tetrazapentacyclo[24.3.1.12,5.016,24.017,21]hentriaconta-1(30),2,4,16,18,21,23,26,28-nonaene-10,1′-cyclopropane]-6-yl)phenyl]propanoic acid]
[1]
  TECC (test agent AUC divided by VX-809 AUC): B (a value between 3 and 6 is marked “B”)
[2]
  DSLS (ΔTagg): C (a value greater than 10 °C and less than or equal to 25 °C is marked “C”)

## CC1(c2ccccc2)CCCC2(CC2)CNC(=O)CCc2c(c(F)cc3[nH]ccc23)Oc2ccc(F)c(c2)-c2ncc1[nH]2 (centres unmarked) [Compound 37, 23,29-Difluoro-6-methyl-6-phenyl-spiro[25-oxa-3,12,20,31-tetrazapentacyclo[24.3.1.12,5.016,24.017,21]hentriaconta-1(30),2,4,16,18,21,23,26,28-nonaene-10,1′-cyclopropane]-13-one]
[1]
  TECC (test agent AUC divided by VX-809 AUC): A (a TECC value less than 3 is marked “A”)
[2]
  DSLS (ΔTagg): A (an ΔTagg value less than or equal to 5 °C is marked “A”)

## CN1CC(C)(C)CCCC(c2cccc(CCC(=O)O)c2)n2ccc(n2)-c2cc(ccc2F)Oc2c(F)cc3[nH]ccc3c2CCC1=O (centres unmarked) [Compound 38, 3-[3-(23,29-difluoro-10,10,12-trimethyl-13-oxo-25-oxa-5,12,20,31-tetrazapentacyclo[24.3.1.12,5.016,24.017,21]hentriaconta-1(30),2(31),3,16,18,21,23,26,28-nonaen-6-yl)phenyl]propanoic acid]
[1]
  TECC (test agent AUC divided by VX-809 AUC): A (a TECC value less than 3 is marked “A”)
[2]
  DSLS (ΔTagg): A (an ΔTagg value less than or equal to 5 °C is marked “A”)

## CN1CC(C)(C)CCCC(c2ccccc2)n2ccc(n2)-c2cc(ccc2F)Oc2c(F)cc3[nH]ccc3c2CCC1=O (centres unmarked) [Compound 39, 23,29-difluoro-10,10,12-trimethyl-6-phenyl-25-oxa-5,12,20,31-tetrazapentacyclo[24.3.1.12,5.016,24.017,21]hentriaconta-1(30),2(31),3,16,18,21,23,26,28-nonaen-13-one]
[1]
  TECC (test agent AUC divided by VX-809 AUC): A (a TECC value less than 3 is marked “A”)
[2]
  DSLS (ΔTagg): A (an ΔTagg value less than or equal to 5 °C is marked “A”)

## CN1CC(C)(C)CCCC(c2cccc(CCC(=O)O)c2)c2cnc([nH]2)-c2cc(ccc2F)Oc2c(F)cc3[nH]ccc3c2CCC1=O (centres unmarked) [Compound 41, 3-[3-(23,29-Difluoro-10,10,12-trimethyl-13-oxo-25-oxa-3,12,20,31-tetrazapentacyclo[24.3.1.12,5.016,24.017,21]hentriaconta-1(30),2,4,16,18,21,23,26,28-nonaen-6-yl)phenyl]propanoic acid]
[1]
  TECC (test agent AUC divided by VX-809 AUC): B (a value between 3 and 6 is marked “B”)
[2]
  DSLS (ΔTagg): B (a value above 5 °C and less than or equal to 10 °C is marked “B”)

## CN1CC(C)(C)OCCC(C)(c2ccccc2)c2cnc([nH]2)-c2cc(ccc2F)Oc2c(F)cc3[nH]ccc3c2CCC1=O (centres unmarked) [Compound 43, 23,29-Difluoro-6,10,10,12-tetramethyl-6-phenyl-9,25-dioxa-3,12,20,31-tetrazapentacyclo[24.3.1.12,5.016,24.017,21]hentriaconta-1(30),2,4,16,18,21,23,26,28-nonaen-13-one]
[1]
  TECC (test agent AUC divided by VX-809 AUC): A (a TECC value less than 3 is marked “A”)
[2]
  DSLS (ΔTagg): A (an ΔTagg value less than or equal to 5 °C is marked “A”)

## CN1CC(C)(C)CCCC(C)(c2cccc(CCC(=O)O)c2)c2nnc([nH]2)-c2cc(ccc2F)Oc2c(F)cc3[nH]ccc3c2CCC1=O (centres unmarked) [Compound 44, 3-[3-(23,29-Difluoro-6,10,10,12-tetramethyl-13-oxo-25-oxa-3,4,12,20,31-pentazapentacyclo[24.3.1.12,5.016,24.017,21]hentriaconta-1(30),2,4,16,18,21,23,26,28-nonaen-6-yl)phenyl]propanoic acid]
[1]
  TECC (test agent AUC divided by VX-809 AUC): C (a value between 6 and 20 is marked “C”)
[2]
  DSLS (ΔTagg): C (a value greater than 10 °C and less than or equal to 25 °C is marked “C”)

## CC1(C)CCC(C)(c2cccc(CCC(=O)O)c2)c2cnc([nH]2)-c2cc(ccc2F)Oc2c(F)cc3[nH]ccc3c2CCNC(=O)OC1 (centres unmarked) [Compound 45, 3-[3-(23,29-Difluoro-6,9,9-trimethyl-12-oxo-11,25-dioxa-3,13,20,31-tetrazapentacyclo[24.3.1.12,5.016,24.017,21]hentriaconta-1(30),2,4,16(24),17(21),18,22,26,28-nonaen-6-yl)phenyl]propanoic acid]
[1]
  TECC (test agent AUC divided by VX-809 AUC): B (a value between 3 and 6 is marked “B”)
[2]
  DSLS (ΔTagg): C (a value greater than 10 °C and less than or equal to 25 °C is marked “C”)

## CN1CC(C)(C)CCCC(C)(c2cccc(CCc3nnn[nH]3)c2)c2cnc([nH]2)-c2cc(ccc2F)Oc2c(F)cc3[nH]ccc3c2CCC1=O (centres unmarked) [Compound 52, 23,29-Difluoro-6,10,10,12-tetramethyl-6-[3-[2-(1H-tetrazol-5-yl)ethyl]phenyl]-25-oxa-3,12,20,31-tetrazapentacyclo[24.3.1.12,5.016,24.017,21]-hentriaconta-1(30),2,4,16,18,21,23,26,28-nonaen-13-one]
[1]
  TECC (test agent AUC divided by VX-809 AUC): A (a TECC value less than 3 is marked “A”)
[2]
  DSLS (ΔTagg): C (a value greater than 10 °C and less than or equal to 25 °C is marked “C”)

## CN1CC(C)(C)CCCCC(C)(c2cccc(CCC(=O)O)c2)c2cnc([nH]2)-c2cc(ccc2F)Oc2c(F)cc3[nH]ccc3c2CCC1=O (centres unmarked) [Compound 61, 3-[3-(24,30-Difluoro-6,11,11,13-tetramethyl-14-oxo-26-oxa-3,13,21,32-tetrazapentacyclo[25.3.1.12,5.017,25.018,22]dotriaconta-1(31),2,4,17,19,22,24,27,29-nonaen-6-yl)phenyl]propanoic acid]
[1]
  TECC (test agent AUC divided by VX-809 AUC): B (a value between 3 and 6 is marked “B”)
[2]
  DSLS (ΔTagg): C (a value greater than 10 °C and less than or equal to 25 °C is marked “C”)

## CN1CC(C)(C)CCCCC(C)(c2ccccc2)c2cnc([nH]2)-c2cc(ccc2F)Oc2c(F)cc3[nH]ccc3c2CCC1=O (centres unmarked) [Compound 62, 24,30-Difluoro-6,11,11,13-tetramethyl-6-phenyl-26-oxa-3,13,21,32-tetrazapentacyclo[25.3.1.12,5.017,25.018,22]dotriaconta-1(31),2,4,17,19,22,24,27,29-nonaen-14-one]
[1]
  TECC (test agent AUC divided by VX-809 AUC): A (a TECC value less than 3 is marked “A”)
[2]
  DSLS (ΔTagg): A (an ΔTagg value less than or equal to 5 °C is marked “A”)

## CN1CC(C)(C)CCCC(C)(c2ccc(CC(=O)O)cc2)c2cnc([nH]2)-c2cc(ccc2F)Oc2c(F)cc3[nH]ccc3c2CCC1=O (centres unmarked) [Compound 63, 2-[4-(23,29-Difluoro-6,10,10,12-tetramethyl-13-oxo-25-oxa-3,12,20,31-tetrazapentacyclo[24.3.1.12,5.016,24.017,21]hentriaconta-1(30),2,4,16,18,21,23,26,28-nonaen-6-yl)phenyl]acetic acid]
[1]
  TECC (test agent AUC divided by VX-809 AUC): A (a TECC value less than 3 is marked “A”)
[2]
  DSLS (ΔTagg): B (a value above 5 °C and less than or equal to 10 °C is marked “B”)
